One test concerns CFPAC-1 tumor. The test is described as follows: Subcutaneous CFPAC-1 tumor-bearing nude mice. It is filed as in vivo. The following applies: nude mice inoculated with CFPAC-1; 10 mg/kg/day intraperitoneally; vs solvent vehicle; FIG. 27. An excerpt:
(§1) To verify whether cells sensitive to mitochondrial oxidative phosphorylation pathway […] still maintained the sensitivity to oxidative phosphorylation pathway inhibitors in vivo, S-Gboxin was used to test the effectiveness in tumor-bearing mice subcutaneously inoculated with sensitive cells (NCI-H82) and insensitive cells (CFPAC-1).
(§2) 5×10^6 of NCI-H82, NCI-H82-NNMT^ov (inserting the NNMT gene into NCI-H82 cell using a viral vector to overexpress NNMT protein) and CFPAC-1 tumors were subcutaneously inoculated in nude mice to establish tumor-bearing mice. Each group of tumor-bearing mice was injected intraperitoneally with the S-Gboxin (a mitochondrial oxidative phosphorylation pathway inhibition) at a dose of 10 mg/kg/day, the inhibition effect of S-Gboxin on the tumor was investigated. The mice in control group was injected intraperitoneally with solvent vehicle in the same method, and the tumor volume was calculated as follows: tumor volume=½ length×width 2. The experiment result was shown in FIG. 25, FIG. 26, and FIG. 27.

The next test concerns NCI-H82 tumor. Put plainly: Subcutaneous NCI-H82 tumor-bearing nude mice. The note with it: nude mice inoculated with NCI-H82; 10 mg/kg/day intraperitoneally; vs solvent vehicle; FIG. 25. Format: in vivo.
Description: as §1, §2

Test [1] relates to mitochondrial oxidative phosphorylation pathway. The test is described as follows: Oxygen consumption of NCI-H82 cell, Seahorse XFe metabolic analyzer. The following applies: detection within 0.5 h, compared with control group, FIG. 1 (n=3). Format: cell-based, human. An excerpt:
The oxygen was mainly consumed by mitochondrial oxidative phosphorylation pathway in the cell, thus the determination of oxygen consumption rate (OCR) of mitochondria could directly reflect the activity of mitochondrial oxidative phosphorylation pathway. The oxygen consumption of NCI-H82 cell in the presence or absence of Oligomycin A, Gboxin, S-Gboxin and IACS-010759, mitochondrial oxidative phosphorylation pathway inhibitors, was detected using Seahorse XFe metabolic analyzer in the present Example. NCI-H82 cell (ATCC, No. […] The control group in absence of mitochondrial oxidative phosphorylation pathway inhibitor was set. The detection of cell oxygen consumption was finished within 0.5 h.

In a further test the test system is NCI-H82-NNMT^ov tumor. Put plainly: Subcutaneous NCI-H82-NNMT^ov tumor-bearing nude mice. It is filed as in vivo. The note with it: nude mice inoculated with NCI-H82-NNMT^ov; 10 mg/kg/day intraperitoneally; compared with effect on NCI-H82 tumor; FIG. 26.
Description: as §1, §2

In a further test the test system is GB-1. The test is described as follows: Cell viability (CellTiter-Glo), GB-1. Format: cell-based. The following applies: Homo sapiens; GB-1 cell line, 3-4 days of culture. Here is the method: (§3) Cell viability was detected using the Promega CellTiter-Glo kit, the kit reflected cell viability by directly measuring intracellular ATP content. The inhibitory effect (IC50 value) of Gboxin, a mitochondrial oxidative phosphorylation pathway inhibitor, on different tumor cell lines was tested in the Example. The name, source, and culture condition of each tumor cell line were as follows:
Cell line GB-1 (JCRB, No. IFO50489) was cultured in 10% fetal bovine serum-containing DMEM medium (+P/S).
The above tumor cells were cultured in the relevant medium (+P/S), and incubated for 3 h, then the gradient diluted Gboxin was added, and IC50 (50% inhibiting concentration) was measured after 3-4 days of culture.
Cell viability was detected using the Promega CellTiter-Glo kit, the kit reflected cell viability by directly measuring intracellular ATP content. In this experiment, the IC50 values of Oligomycin A or IACS-010759, a mitochondrial oxidative phosphorylation pathway inhibitor, on different tumor cells was determined.
The different tumor cells were cultured in the relevant medium (+P/S) as shown in Example 2, and incubated for 3 h, then the gradient diluted Oligomycin A or IACS-010759 was added respectively, and IC50 (50% inhibiting concentration) of Oligomycin A or IACS-010759 on different tumor cells was measured after 3-4 days of culture.

In another test the test system is MDA-MB-453. The test is described as follows: Cell viability (CellTiter-Glo), MDA-MB-453. Format: cell-based. The following applies: Homo sapiens; MDA-MB-453 cell line, 3-4 days of culture. Here is the method:
as §3, with “follows: Cell line MDA-MB-453 (ATCC, No. HTB-131) was cultured in 10% fetal bovine serum-containing Leibovitz's L-15 medium (+P/S). […] Cell viability was detected using the Promega CellTiter-Glo kit, the kit reflected cell viability by directly measuring intracellular ATP content.” for “follows:”
A general note: Cellular ATP, detected with luciferase, serves as a proxy for viable cell number.

The subject of another test is SW48. The test is described as follows: Cell viability (CellTiter-Glo), SW48. Format: cell-based. The following applies: Homo sapiens; SW48 cell line, 3-4 days of culture. Here is the method:
as §3, with “follows: Cell line SW48 (ATCC, No. CCL-231) was cultured in 10% fetal bovine serum-containing Leibovitz's L-15 medium (+P/S). […] Cell viability was detected using the Promega CellTiter-Glo kit, the kit reflected cell viability by directly measuring intracellular ATP content.” for “follows:”

In test [2] the test system is brain tumors and acute myeloid leukemia. The note with it: study published in Nature Medicine (2018); cited from earlier work.
A further test relates to SF126. The test is described as follows: Cell viability (CellTiter-Glo), SF126. It is filed as cell-based. The following applies: Homo sapiens, SF-126; SF126 cell line, 3-4 days of culture. Here is the method:
as §3, with “follows: Cell line SF126 (JCRB, No. IFO50286) was cultured in 10% fetal bovine serum-containing EMEM medium (+P/S). […] Cell viability was detected using the Promega CellTiter-Glo kit, the kit reflected cell viability by directly measuring intracellular ATP content.” for “follows:”

The subject of another test is 786-O. The test is described as follows: Cell viability (CellTiter-Glo), 786-O. Format: cell-based. The note with it: Homo sapiens, 786-0; 786-O cell line, 3-4 days of culture. Here is the method: as §3, with “follows: Cell line 786-O (ATCC, No. CRL-1932) was cultured in 10% fetal bovine serum-containing RPMI1640 medium (+P/S). […] Cell viability was detected using the Promega CellTiter-Glo kit, the kit reflected cell viability by directly measuring intracellular ATP content.” for “follows:”

A further test has as its system WSU-DLCL2. The test is described as follows: Cell viability (CellTiter-Glo), WSU-DLCL2. The note with it: Homo sapiens, WSUDLCL2; WSU-DLCL2 cell line, 3-4 days of culture. It is filed as cell-based. Here is the method:
as §3, with “follows: Cell line WSU-DLCL2 (DSMZ, No. ACC-575) was cultured in 10% fetal bovine serum-containing RPMI1640 medium (+P/S). […] Cell viability was detected using the Promega CellTiter-Glo kit, the kit reflected cell viability by directly measuring intracellular ATP content.” for “follows:”

Another test has as its system G-401. Put plainly: Cell viability (CellTiter-Glo), G-401. The following applies: Homo sapiens; G-401 cell line, 3-4 days of culture. Format: cell-based. Here is the method: as §3, with “follows: Cell line G-401 (ATCC, No. CRL-1441) was cultured in 10% fetal bovine serum-containing McCoy's 5a medium (+P/S). […] Cell viability was detected using the Promega CellTiter-Glo kit, the kit reflected cell viability by directly measuring intracellular ATP content.” for “follows:”

A further test relates to CFPAC-1. Put plainly: Cell viability (CellTiter-Glo), CFPAC-1. The following applies: Homo sapiens; CFPAC-1 cell line, 3-4 days of culture. It is filed as cell-based. Here is the method:
as §3, with “follows: Cell line CFPAC-1 (ATCC, No. CRL-1918) was cultured in 10% fetal bovine serum-containing IMDM medium (+P/S). […] Cell viability was detected using the Promega CellTiter-Glo kit, the kit reflected cell viability by directly measuring intracellular ATP content.” for “follows:”

The next test concerns NCI-H82. Put plainly: Cell viability (CellTiter-Glo), NCI-H82. It is filed as cell-based. The following applies: Homo sapiens; NCI-H82 cell line, 3-4 days of culture. Here is the method:
as §3, with “follows: Cell line NCI-H82 (ATCC, No. HTB-175) was cultured in 10% fetal bovine serum-containing RPMI1640 medium (+P/S). […] Cell viability was detected using the Promega CellTiter-Glo kit, the kit reflected cell viability by directly measuring intracellular ATP content.” for “follows:”

The values below come from patent US20230355647A1, “Marker for determining anti-cancer effects of mitochondrial oxidative phosphorylation pathway inhibitor” (NANJING SHIJIANG MEDICINE TECHNOLOGY CO., LTD, priority 2020, published 2023).

SMILES strings stand for the structures. Bounds are passed on as bounds.

For `CC(C)[C@@H]1CC[C@@H](C)C[C@H]1OC(=O)Cn1c(-c2cccc(C(F)(F)F)c2)[n+](C)c2ccccc21.[I-]` [S-Gboxin], the “inhibitory effect on subcutaneous tumor (tumor volume)” value in the test with CFPAC-1 tumor is recorded as “no significant inhibitory effect”; in the test on NCI-H82-NNMT^ov tumor, “significantly weaker”. The “inhibition of subcutaneous tumor (tumor volume)” value in the test on NCI-H82 tumor is “significantly inhibit”. For the same compound, the “oxygen consumption of NCI-H82 cells” value in test [1] (5 μM inhibitor) is “significantly inhibit”.
`Cc1nc(-c2nc(-c3ccc(OC(F)(F)F)cc3)no2)nn1Cc1cccc(N2CCC(S(C)(=O)=O)CC2)c1` [IACS-010759]: the IC50 (commonly the concentration needed to halve the response being measured) was above 15 µM in the test with GB-1; below 0.01 µM with MDA-MB-453; below 0.01 µM in the test with SW48; above 15 µM in the test on SF126; above 50 µM in the test with 786-O; 3.56 µM in the test on WSU-DLCL2. Further, the IC50 with G-401 is 1.48 µM; in the test on CFPAC-1, 55.7 µM; in the test on NCI-H82 it was 0.168 µM. In addition, in test [2], the “inhibitory effect on brain tumors and acute myeloid leukemia” value was “excellent inhibitory effect”. In addition, the “oxygen consumption of NCI-H82 cells” value in test [1] (1 μM inhibitor) is “significantly inhibit”.
